“Also recorded” adds a separate entry of the source.
What was measured:
[1] = test system: delayed-type hypersensitivity (DTH) mouse model; assay: KLH-induced delayed-type hypersensitivity (DTH) mouse model, ear thickness; format: in vivo
Experimental: The ability of Treg cells induced by IL-2 variants to suppress T cell antigen-driven inflammation in vivo was assessed in a model of delayed-type hypersensitivity (DTH). Female Balb/C mice (7-week old) were acclimated in house for 7 days and randomized into groups. Subcutaneous administration of vehicle (PBS), P-0511 at either 0.1 mg/kg or 0.3 mg/kg was initiated on day-2 and was given either once every 3 days (Q3D) for three injections or once every 5 days (Q5D) for two injections. Mice were then sensitized with a subcutaneous administration of 100 μg keyhole limpet hemocyanin (KLH) in 200 μl saline on day 0. For Q3D dosing, two more subcutaneous injections of PBS or P-0511 (0.1 or 0.3 mg/kg) were administered on days 1 and 4; for Q5D dosing, one additional s.c. injection of PBS, 0.1 or 0.3 mg/kg P-0511 was administered on day 3. Mice received an intradermal challenge of KLH (5 μg in 10 μl saline) in right ear on day 5. Right ear thickness was measured using a caliper on day 5 prior KLH challenge and daily from day 6 to day 8 corresponding to 24 h, 48h, and 72 h post KLH challenge. One group of mice also received 5 mg/kg daily i.p. treatment of dexamethasone from day 5 to day 8 as a positive control.
Kinetics of the DTH response using the change in ear thickness relative to baseline values (Δ ear thickness) at various times after KLH challenge was illustrated in FIG. 23.
In a separate study, dose-dependent response of P-0511 (0.1, 0.3 and 1 mg/kg, Q5D) on suppression of KLH-induced DTH was determined and compared with Benchmark-1 (0.3 mg/kg, Q5D).

[2] = test system: regulatory T cells (CD4+CD25+FoxP3+ T cells), effector T cells and NK cells; assay: Treg versus effector T and NK cell proliferation and expansion in mice after a single subcutaneous injection; format: in vivo, mouse; details: 0.3 mg/kg s.c. single dose, C57/BL6 mice; for Treg cell proliferation and expansion (Ki67 positive Treg, % Treg over CD4+ T cells or lymphocytes): days 3, 5, 7
Experimental: IL-2 variant Fc fusion proteins were administered to mice and their ability to preferentially proliferate and expand regulatory T cells (CD4+CD25+FoxP3+ T cells) over effector T cells and NK cells were determined in vivo.
Female C57/BL6 mice (7-week old) were received from Charles River Laboratory and acclimated in house for at least 7 days before the study. Vehicle (PBS), 0.3 mg/kg of each test compounds, or IL-2 benchmark compounds were subcutaneously administered to mice on day 0. Peripheral blood samples were collected into heparin-treated tubes on days 3, 5 and 7 post-treatment. Each group contained 6 mice and baseline blood was collected 2 days prior to the treatment (day-2). After red blood cell lysis, total viable mononuclear blood cells were counted by trypan blue dead cell exclusion method and proceeded to intracellular staining for immune cell phenotype and Ki67 proliferation markers using flow cytometric analysis. Cells were stained separately with two panels of antibodies as listed: 1) anti-mouse Foxp3-FITC, Ki67-PE, anti-mouse CD25-APC and anti-mouse CD4-Percpcy5.5 (1:50 dilution) for CD4+T-regulatory cells (Treg); 2) anti-mouse CD3-FITC, Ki67-PE, anti-mouse CD335-APC and anti-mouse CD8-Percpcy5.5 (1:50 dilution) for CD8+T and NK cells.

[3] = test system: STAT5 phosphorylation in CD4+ Treg cells (CD4+/Foxp3+/CD25high); assay: STAT5 phosphorylation in CD4+ Treg cells, human PBMC assay by FACS; format: cell-based; details: for window for selective activation of Treg cells over CD4+ Tconv cells (in words): pSTAT5, Treg versus Tconv; for pSTAT5 activity profile compared with benchmark molecules (in words): Treg and CD4+ Tconv cells
From the text: Single amino acid substitutions were introduced to IL-2 at positions corresponding to amino acids interacting with receptor subunit(s) β or γ or By. These substitutions were aimed to reduce IL-2 signaling capacity through the intermediate affinity IL-2Rβγ complex and confer signaling specificity from the high affinity IL-2Rαβγ. IL-2 variants containing single amino acid substitutions were examined for their ability to differentially stimulate STAT5 phosphorylation in CD4 positive Treg and Tconv cells. STAT5 is known to be involved in the downstream signaling cascade upon IL-2 binding to the transmembrane IL-2 receptors. The phosphorylation of STAT5 in defined lymphocyte subpopulations was measured using fresh human peripheral blood mononuclear cells (PBMC) and the forkhead transcription factor FOXP3 was used to identify the Treg population in FACS analysis.
Briefly, human PBMC were isolated by Ficoll-Hypaque centrifugation from the buffy coat of a healthy donor. PBMC were starved in serum-free MACS buffer at 4° C. for 1 hour. 2×10^5 PBMC were then treated with serial dilutions of test compounds for 30 min at 37° C. Cells were fixed and permeabilized with Foxp3/Transcription Factor Staining Buffer Set (EBIO) by incubating with 1× Foxp3 fixation/permeabilization working solution for 30 minutes and washing with 1× permeabilization buffer. Cells were additionally fixed with Cytofix buffer and permeabilized with Perm Buffer III (BD Biosciences) and then washed. After blocking Fc receptors by adding human TruStain™ FcX (1:50 dilution), cells were stained with a mixture of anti-CD25-PE, anti-FOXP3-APC, anti-pSTAT5-FITC, and anti-CD4-PerCP-Cy5.5 antibodies at concentrations recommended by the manufacturer for 45 minutes at room temperature. Cells were collected by centrifugation, washed, resuspended in FACS buffer, and analyzed by flow cytometry. The flow cytometry data was gated into CD4+/Foxp3+/CD25^high and CD4+/Foxp3−/CD25^low groups for the Treg and CD4 conventional T cell subsets, respectively. Data are expressed as a percent of pStat5 positive cells in gated population.

[4] = test system: STAT5 phosphorylation in CD4+/Foxp3+/CD25+ Treg, CD4+/Foxp3-/CD25+ CD4 effector and CD4+/Foxp3-/CD25- CD4 naive T cell subsets; assay: STAT5 phosphorylation in three CD4+ T cell subsets, human PBMC; format: cell-based; details: FIG. 9
Experimental: After human PBMC Cells were treated with serial dilutions of test compounds, fixed and permeabilized, washed, and stained with a mixture of anti-CD25-PE, anti-FOXP3-APC, anti-pSTAT5-FITC, and anti-CD4-PerCP-Cy5.5 antibodies, the flow cytometry analysis was gated into CD4+/Foxp3+/CD25+, CD4+/Foxp3−/CD25+, CD4+/Foxp3−/CD25− groups for the Treg, CD4 effector, and CD4 naive T cell subsets, respectively. Data are expressed as a percent of pSTAT5 positive cells in gated population and illustrated in FIG. 9.

[5] = test system: Treg cells in blood; assay: Pharmacodynamics study in mice following repeated administration (Q3D); format: in vivo, mouse; details: 0.3 mg/kg s.c. Q3D x3; compared to P-0531 and Benchmark-1
Experimental: Female Balb/C mice (7-week old) were acclimated in house for 5-7 days before the study. Vehicle (PBS), 0.3 mg/kg of P-0511, P-0512, P-0531, or Benchmark-1 compound were subcutaneously administered to mice (n=5/group) on days 0, 3, and 6. On days 3 and 9, three days after the first injection and multiple (3) injections, respectively, peripheral blood was collected. Based on earlier in vivo experiments, Treg cell activation, proliferation, and expansion were expected to peak on day 3, and thus three days post injection was selected for data collection and analysis. Changes in blood lymphocyte activation, proliferation, and expansion were measured by flow cytometry. P-0531 is the S125I equivalent of the wild type IL-2 fusion protein. The Benchmark-1 contains V91K mutation.

## C[C@@H]1C[C@H]2[C@@H]3CCC4=CC(=O)C=C[C@]4(C)[C@@]3(F)[C@@H](O)C[C@]2(C)[C@@]1(O)C(=O)CO [dexamethasone, reference compound]
[1]; 5 mg/kg daily i.p., 4 consecutive doses, 72 hours after KLH challenge
  inhibition of KLH-induced inflammatory response (ear swelling): ~85%

## Benchmark-1: benchmark Fc-IL-2 variant fusion protein containing V91K mutation; SEQ ID NO: 191 [reference compound]
[2]
  Ki67 stimulation on CD8 T cells and NK cells: strong Ki67 stimulation
  Treg cell proliferation and expansion (Ki67 positive Treg, % Treg over CD4+ T cells or lymphocytes): highest potency
[1]; 0.3 mg/kg, Q5D
  inhibition of ear inflammation (KLH-induced DTH), separate study: mild inhibition of ear swelling

## Benchmark-3: benchmark Fc-IL-2 variant fusion protein containing N88D; SEQ ID NO: 192 [reference compound]
[2]
  Ki67 stimulation on CD8 T cells and NK cells: low effects
  Treg cell proliferation and expansion (Ki67 positive Treg, % Treg over CD4+ T cells or lymphocytes): not efficacious

## P-0303: Fc fusion protein of IL-2 variant Q126E; SEQ ID NO: 88
[3]
  window for selective activation of Treg cells over CD4+ Tconv cells (in words): modestly improved selective window

## P-0363: Fc fusion protein of IL-2 variant D20T; SEQ ID NO: 72
[3]
  window for selective activation of Treg cells over CD4+ Tconv cells (in words): some or significant biased selective window

## P-0372: Fc fusion protein of IL-2 variant L19Y; SEQ ID NO: 79
[3]
  window for selective activation of Treg cells over CD4+ Tconv cells (in words): modestly improved selective window

## P-0373: Fc fusion protein of IL-2 variant L19N; SEQ ID NO: 80
[3]
  window for selective activation of Treg cells over CD4+ Tconv cells (in words): wide window for selective targeting of Treg subset; also recorded: some or significant biased selective window

## P-0424: Fc fusion protein of IL-2 variant L19H; SEQ ID NO: 148
[3]
  window for selective activation of Treg cells over CD4+ Tconv cells (in words): selective activation of Treg cells over CD4+ Tconv cells

## P-0425: Fc fusion protein of IL-2 variant L19D; SEQ ID NO: 149
[3]
  window for selective activation of Treg cells over CD4+ Tconv cells (in words): wide window for selective targeting of Treg subset

## P-0447: Fc fusion protein of IL-2 variant L19H/Q126E; SEQ ID NO: 168
[3]
  pSTAT5 activity profile compared with benchmark molecules (in words): on par with Benchmark-3

## P-0448: Fc fusion protein of IL-2 variant L19Q/Q126E; SEQ ID NO: 169
[3]
  pSTAT5 activity profile compared with benchmark molecules (in words): on par with Benchmark-3

## P-0449: Fc fusion protein of IL-2 variant L19S/Q126E; SEQ ID NO: 170
[3]
  pSTAT5 activity profile compared with benchmark molecules (in words): on par with Benchmark-3

## P-0491: Fc fusion protein of IL-2 variant L19H/S125I; SEQ ID NO: 185
[3]
  window for selective activation of Treg cells over CD4+ Tconv cells (in words): without altering Treg selectivity

## P-0512: Fc fusion protein of IL-2 variant L19H/S125I/Q126K; SEQ ID NO: 199
[2]
  Ki67 stimulation on CD8 T cells and NK cells: mild Ki67 stimulation
  expansion of CD4+ Tconv cells, CD8 T cells or NK cells: No significant expansion
  Treg cell proliferation and expansion (Ki67 positive Treg, % Treg over CD4+ T cells or lymphocytes): stronger in vivo efficacy
[4]
  pSTAT5 potency and selectivity in Treg, Teff and naive CD4 T cell subsets (in words): comparable activity profile to Benchmark-1
[5]
  Treg cell counts, fold changes relative to PBS and Treg/Tconv ratio: superior capabilities to sustain Treg pool

## P-0514: Fc fusion protein of IL-2 variant L19Q/S125I/Q126E; SEQ ID NO: 201
[2]
  expansion of CD4+ Tconv cells, CD8 T cells or NK cells: No significant expansion
  Treg cell proliferation and expansion (Ki67 positive Treg, % Treg over CD4+ T cells or lymphocytes): stronger in vivo efficacy

## P-0531: Fc fusion protein of IL-2 variant S125I, the S125I equivalent of wild type P-0250; SEQ ID NO: 162
[3]
  window for selective activation of Treg cells over CD4+ Tconv cells (in words): without altering Treg selectivity
